Reference: patent US5804599A, “Interleukin-1 production inhibiting compound” (Kyowa Hakko Kogyo Co., Ltd., priority 1994, dated 1998)
In brackets after ≈: the same amount, converted by molar mass. Like-named read-outs stand apart in the source and are kept apart here.

What was measured:
[1] = system: Staphylococcus aureus ATCC 6538P; assay: Antibacterial activity (MIC), agar dilution method; type: cell-based; details: ATCC6538P, pH 7.0
Description: (§1) Antibacterial activity was determined by an agar dilution method using a medium (pH 7.0) comprising 3 g/l bactotrypton (made by Difco Laboratories), 3 g/l meat extract, 1 g/l yeast extract, 1 g/l glucose and 16 g/l agar.

[2] = system: Bacillus subtilis No. 10707; assay: Antibacterial activity (MIC), agar dilution method; type: cell-based; details: pH 7.0
Description: as §1

[3] = system: Enterococcus faecium ATCC 10541; assay: Antibacterial activity (MIC), agar dilution method; type: cell-based; details: ATCC10541, pH 7.0
Description: as §1

IL-1 β = assay: Inhibiting activity of the production of IL-1 (LPS-stimulated, PMA-differentiated THP-1 cells, ELISA); type: cell-based; details: Homo sapiens, read-out: IC50 (50% inhibitory concentration) of IL-1 production
Description: Inhibiting Activity of the production of IL-1
With respect to Compound (I) of the present invention, the inhibiting activity of production of IL-1 β derived from THP-1 cells (ATCC No. TIB 202) of a human monocyte was examined. The amount of IL-1 β was determined by the ELISA method.
The THP-1 cells were suspended in an RPMI 1640 culture solution comprising 10% inactivated fetal bovine serum at a concentration of 1×10^5 cells/ml. The suspension was charged in a 24-well plate at a volume of 1 ml/well. PMA (phorbol 12-myristate 13-acetate, made by Wako Pure Chemical Industries, Ltd.; final concentration 30 nM) was added thereto, and the mixture was cultured in a mixed gas of 5% CO2 and 95% air at 37° C. for 65 hours. The cells were differentiated in a macrophage form.
The cultivation plate was gently washed with a serum-free RPMI 1640 culture solution to remove the cells not adhered thereto, and the residue was cultured for 4 hours in a serum-free RPMI 1640 culture solution (1 ml/well) to which LPS (lipopolysaccharide, made by Difco Laboratories; a final concentration 25 μg/ml) and a compound to be tested were added simultaneously.
After the completion of the cultivation, the amount of IL-1 β which was released in the cultivated supernatant was determined using an IL-1 β determination kit (made by Amersham Corp.).
Percent inhibition of IL-1 production was calculated using the following equation to obtain IC50 (50% inhibitory concentration).
Percent inhibition of IL-1 production (%) =[(A-B)/(A-C)]×100
A: amount of IL-1 produced when only LPS is added
B: amount of IL-1 produced when LPS and the compound to be tested are added
C: amount of IL-1 when LPS is not added

bacteria = details: in words; cited from earlier work
[4] = IL-1 β release from THP-1 cells, LPS 25 μg/ml, 4 hours, serum-free RPMI 1640

`CC(C)C/C=C/C=C/C(=O)NC1=CC(O)(/C=C/C=C/C=C/C(=O)NC2=C(O)CCC2=O)C2OC2C1=O` (stereo not drawn) [EI-1511-3] gave an MIC [1] of 20 µg/mL (≈ 40.4 µM), an MIC [2] of 20 µg/mL (≈ 40.4 µM) and an MIC [3] of 20 µg/mL (≈ 40.4 µM). The IC50 (IL-1 β; [4]) was 5.4 µM, the Solubility (Solubility; in acetone) was “easily soluble” and the Solubility (Solubility; in dimethyl sulfoxide) was “easily soluble”. For the same compound, the Solubility (Solubility; in methanol) was “soluble”.

For `CCCC[C@@H](C)/C=C(C)/C=C(\C)C(=O)NC1=C[C@@](O)(/C=C/C=C/C=C/C(=O)NC2=C(O)CCC2=O)[C@@H]2O[C@@H]2C1=O` [Manumycin A], the antibacterial activity (bacteria) is listed as “known to exhibit antibacterial activity”.

Compound `CCC(C)/C=C/C=C/C=C/C(=O)NC1=CC(O)(/C=C/C=C/C=C/C(=O)NC2=C(O)CCC2=O)C2OC2C1=O` (stereo not drawn) [EI-1511-5] has an MIC [1] of 20 µg/mL (≈ 38.4 µM), an MIC [2] of 20 µg/mL (≈ 38.4 µM) and an MIC [3] of 20 µg/mL (≈ 38.4 µM). The IC50 (IL-1 β; THP-1, 4 h) was 3.6 µM, the Solubility (Solubility; in acetone) was “easily soluble” and the Solubility (Solubility; in dimethyl sulfoxide) was “easily soluble”. For the same compound, the Solubility (Solubility; in methanol) was “soluble”.

For `CC(C)C/C=C/C=C/C=C/C(=O)NC1=CC(O)(/C=C/C=C/C=C/C(=O)NC2=C(O)CCC2=O)C2OC2C1=O` (stereo not drawn) [U-56407], the antibacterial activity (bacteria) is listed as “known to exhibit antibacterial activity”.

For `CCCCC(C)/C=C(\C)C(=O)NC1=CC(O)(/C=C/C=C/C=C/C(=O)NC2=C(O)CCC2=O)C2OC2C1=O` (stereo not drawn) [Manumycin B], the antibacterial activity (bacteria) is given as “known to exhibit antibacterial activity”.

In the case of `O=C(/C=C/C=C/C1CCCCC1)NC1=CC(O)(/C=C/C=C/C=C/C(=O)NC2=C(O)CCC2=O)C2OC2C1=O` (stereo not drawn) [Alisamycin], the antibacterial activity (bacteria) is given as “known to exhibit antibacterial activity”.

For `CC(C)/C=C/C=C/C=C/C(=O)NC1=C[C@@](O)(/C=C/C=C/C=C/C(=O)NC2=C(O)CCC2=O)C2OC2C1=O` (stereo partly drawn) [Manumycin G], the antibacterial activity (bacteria) is given as “known to exhibit antibacterial activity”.

For `CCCCC(C)/C=C(C)/C=C/C(=O)NC1=CC(O)(/C=C/C=C/C=C/C(=O)NC2=C(O)CCC2=O)C2OC2C1=O` (stereo not drawn) [Manumycin C], the antibacterial activity (bacteria) is listed as “known to exhibit antibacterial activity”.

In the case of `CCCCC(C)/C=C/C(=O)NC1=CC(O)(/C=C/C=C/C=C/C(=O)NC2=C(O)CCC2=O)C2OC2C1=O` (stereo not drawn) [EI-1625-2], the MIC [1] is reported as 10 µg/mL (≈ 20.1 µM), the MIC [2] is reported as 5 µg/mL (≈ 10.1 µM) and the MIC [3] is reported as 20 µg/mL (≈ 40.3 µM). It also gave an IC50 (IL-1 β; [4]) of 5.4 µM.
